Assay results reported in patent publication US20080119513A1, “Sulfonamide Derivative Selectively Inhibiting Mmp-13” (priority 2004, published 2008).

Key:
Type in all cases: biochemical
MMP-8 = molecular target: T1, MMP-8 (Homo sapiens, UniProt P22894); test: Assay for inhibitory activities on MMPs (fluorogenic peptide substrate), MMP-8
T1 construct: In regard to MMP-8, catalytic domain (^99Phe˜^262Gly) was amplified with PCR; His-tag; enterokinase digestion-site
Source text: In regard to MMP-8, catalytic domain (^99Phe˜^262Gly) was amplified with PCR using commercial available Human Bone Marrow cDNA. This was cloned in Escherichia coli expression vector pTrc99AHE inserted with His-tag sequence and enterokinase digestion-site, induced and expressed by IPTG (Isopropyl-β-D-thiogalactopyranoside) and expressed in a insoluble fraction (Than F. Ho, M. Walid Qoronfleh, Robert C. Wahl, Trica A. Pulvino, Karen J. Vavra, Joe Falvo, Tracey M. Banks, Patricia G. Brake and Richard B. Ciccarelli: Gene expression, purification and characterization of recombinant human neutrophil collagenase. Gene 146, (1994) 297-301. It was prepared by the method in a slight modification). Isolation of MMP-8 from an insoluble fraction was carried out by dissolving in modifier (6 M urea) by a usual method and purification with metal chelate chromatography. And then removing modifier (6 M urea) with dialysis and refolding of the enzyme spontaneously gave activated MMP-8.
(§1) The enzymatic activity on MMPs was analyzed by the method described in “C. Graham Knight, Frances Willenbrock and Gillian Murphy: A novel coumarin-labelled peptide for sensitive continuous assays of the matrix metalloproteinases: FEBS LETT., 296, (1992), 263-266”. The substrate: MOCAc-Pro-Leu-Gly-Leu-A2Pr(DNP)-Ala-Arg-NH2 was purchased from Peptide Institute, Inc., Osaka, Japan. The measurement of the inhibitory activities (IC50) was carried out by the following four methods;
(§2) (A) Reaction with substrate, enzyme (MMPs) and inhibitor
(§3) (B) Reaction with substrate and inhibitor, without enzyme
(§4) (C) Reaction with substrate and enzyme (MMPs), without inhibitor
(§5) (D) Reaction with substrate only
(§6) IC50 values were calculated by using the following formula and each fluorescence values of above four methods (A to D).
(§7) % inhibition={1-(A−B)/(C−D)}×100
(§8) IC50 means the concentration required to inhibit 50% of the enzyme activity.
(§9) The value of inhibitory activity against MMP-2, MMP-8, MMP-9, MMP-12, and MMP-13 measured by above mentioned methods are shown in Table 25 and 26.

MMP-13 = molecular target: T2, MMP-13 (Homo sapiens, UniProt P45452); test: Assay for inhibitory activities on MMPs (fluorogenic peptide substrate), MMP-13
T2 construct: catalytic domain (^104Tyr˜^267Gly) was amplified with RT-PCR; His-tag; enterokinase digestion-site
Method: In regard to MMP-13, mRNA was prepared from carcinoma cell SW1353 derived from human cartilage stimulate by IL-1 and TNF, and catalytic domain (^[…]) was amplified with RT-PCR. This was cloned in Escherichia coli expression vector […] inserted with His-tag sequence and enterokinase digestion-site, induced and expressed by IPTG (Isopropyl-β-D-thiogalactopyranoside) and expressed in an insoluble fraction. Isolation of MMP-13 from an insoluble fraction was carried out by dissolving in modifier (6 M urea) by a usual method and purification with metal chelate chromatography (Ni […] Sepharose). And then removing modifier (6 M urea) with dialyze and refolding of the enzyme spontaneously gave activated MMP-13. The enzymatic activity on MMPs was analyzed by the method described in “C. Graham Knight, Frances Willenbrock and Gillian Murphy: A novel coumarin-labelled peptide for sensitive continuous assays of the matrix metalloproteinases: FEBS LETT., 296, (1992), 263-266”. The substrate: MOCAc-[…] was purchased from Peptide Institute, Inc., Osaka, Japan. The measurement of the inhibitory activities (IC50) was carried out by the following four methods; (A) Reaction with substrate, enzyme (MMPs) and inhibitor (B) Reaction with substrate and inhibitor, without enzyme (C) Reaction with substrate and enzyme (MMPs), without inhibitor (D) Reaction with substrate only IC50 values were calculated by using the following formula and each fluorescence values of above four methods (A to D). % inhibition={1-(A-B)/(C-D)}×100 IC50 means the concentration required to inhibit 50% of the enzyme activity. The value of inhibitory activity against MMP-2, MMP-8, MMP-9, MMP-12, and MMP-13 measured by above mentioned methods are shown in Table 25 and 26.

MMP-2 = molecular target: T3, MMP-2 (Homo sapiens, UniProt P08253); test: Assay for inhibitory activities on MMPs (fluorogenic peptide substrate), MMP-2
T3 sequence (P08253 110-660): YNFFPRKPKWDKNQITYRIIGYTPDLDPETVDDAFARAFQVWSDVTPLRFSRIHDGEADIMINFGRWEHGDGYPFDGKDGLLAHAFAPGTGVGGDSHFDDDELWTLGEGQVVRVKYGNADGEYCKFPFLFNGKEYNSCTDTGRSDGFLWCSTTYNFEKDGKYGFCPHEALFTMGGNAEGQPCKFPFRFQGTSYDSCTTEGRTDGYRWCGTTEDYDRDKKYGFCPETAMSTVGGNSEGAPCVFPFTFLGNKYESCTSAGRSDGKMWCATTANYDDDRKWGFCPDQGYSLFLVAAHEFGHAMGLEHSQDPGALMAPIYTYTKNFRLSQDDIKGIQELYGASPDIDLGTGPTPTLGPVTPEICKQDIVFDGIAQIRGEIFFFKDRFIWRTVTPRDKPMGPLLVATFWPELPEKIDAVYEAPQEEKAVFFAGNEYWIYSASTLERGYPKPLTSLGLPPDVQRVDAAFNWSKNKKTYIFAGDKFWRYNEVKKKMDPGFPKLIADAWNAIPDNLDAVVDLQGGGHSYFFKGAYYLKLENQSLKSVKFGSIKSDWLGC
Method: MMP-2 was purchased from Calbiochem-Novabiochem International, Inc.
as §1, §2, §3, §4, §5, §6, §7, §8, §9

MMP-12 = molecular target: T4, MMP-12 (Homo sapiens, UniProt P39900); test: Assay for inhibitory activities on MMPs (fluorogenic peptide substrate), MMP-12
T4 construct: In regard to MMP-12, catalytic domain (^100Phe˜^263Gly) was amplified with RT-PCR; His-tag; enterokinase digestion-site
Method: In regard to MMP-12, catalytic domain (^100Phe˜^263Gly) was amplified with RT-PCR from Human Placenta Total RNA. This was cloned in Escherichia coli expression vector pTrc99AHE inserted with His-tag sequence and enterokinase digestion-site, induced and expressed by IPTG (Isopropyl-β-D-thiogalactopyranoside) and expressed in an insoluble fraction. Isolation of MMP-12 from an insoluble fraction was carried out by dissolving in modifier (6 M urea) by a usual method and purification with metal chelate chromatography (Ni Chelateing Sepharose). And then removing modifier (6 M urea) with dialysis and refolding of the enzyme spontaneously gave activated MMP-12.
as §1, §2, §3, §4, §5, §6, §7, §8, §9

MMP-9 = MMP-9 (Homo sapiens, UniProt P14780); test: Assay for inhibitory activities on MMPs (fluorogenic peptide substrate), MMP-9
Source text: MMP-9 was isolated and purified by the procedure of Y. Okada et al. (Yasunori Okada, Yukio Gonoji, Katsumi Naka, Katsuro Tomita, Isao Nakanishi, Kazushi Iwata, Kyoko Yamashita, and Taro Hayakawa: Matrix metalloproteinase 9 (92-kDa gelatinase/type IV collagenase) from HT1080 human fibrosarcoma cells. Purification and activation of the precursor and enzymic properties, J. Biol. Chem., 1992, 267, 21712-21719) in combination with other following methods: 1) Yasunori Okada, Tatsuhisa Morodomi, Jan J, Enghild, Ko Suzuki, Atsushi Yasui, Isao Nakanishi, Guy Salvesen and Hideaki Nagase: Matrix metalloproteinase 2 from human rheumatoid synovial fibroblasts. Purification and activation of the precursor and enzymic properties, Eur. J. Biochem., 1990, 194, 721-730; 2) Robin V Ward, Rosalind M Hembry, John J Reynolds and Gillian Murphy: The purification of tissue inhibitor of metalloproteinase-2 from its 72 kDa progelatinase complex. Biochem. J., 1991, 278, 179-187. In detail, human fibrosarcoma ATCC HT1080 cell line was cultured to confluent in Dulbecco's Modified Medium (DMEM) containing 10% fetal-calf serum at 37° C. for 48 hours. Subsequently, the medium of confluent culture was changed to serum-free DMEM medium. To obtain MMP-9, phorbol-12-myristate-13-acetate (TPA) must be added to this serum-free DMEM medium at a concentration of 50 ng/ml. The TPA-treated medium was centrifuged at 3000 rpm for 15 min, and the supernatant was concentrated to 450 ml by a Toyo-Roshi UP-20 apparatus with an ultrafiltration membrane. Then, proMMP-9 in this concentrated solution was purified by using columns of Gelatin-Sepharose and Concanavalin A-Sepharose. The pool containing proMMP-9 was dialyzed, concentrated (Toyo-Roshi UP-20) and applied to columns of Sephacryl S-200 and Green A matrix for the separation from TIMPs. The obtained proMMP-9 fraction was activated by TPCK-Trypsin (Final conc.: 3 μg/501 React Mix.).
as §1, §2, §3, §4, §5, §6, §7, §8, §9

T1 sequence (P22894 99-262): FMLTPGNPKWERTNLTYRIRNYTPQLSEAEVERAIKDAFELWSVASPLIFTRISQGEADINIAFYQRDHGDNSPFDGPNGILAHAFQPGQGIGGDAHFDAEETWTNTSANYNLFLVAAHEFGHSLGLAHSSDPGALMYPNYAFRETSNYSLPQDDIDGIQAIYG
T4 sequence (P39900 100-263): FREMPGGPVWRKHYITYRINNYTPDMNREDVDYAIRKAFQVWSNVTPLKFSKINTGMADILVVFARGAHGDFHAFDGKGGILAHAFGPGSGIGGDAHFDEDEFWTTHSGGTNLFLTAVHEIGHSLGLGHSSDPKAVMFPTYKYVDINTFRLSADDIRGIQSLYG
Chain of MMP-9 (P14780 107-707): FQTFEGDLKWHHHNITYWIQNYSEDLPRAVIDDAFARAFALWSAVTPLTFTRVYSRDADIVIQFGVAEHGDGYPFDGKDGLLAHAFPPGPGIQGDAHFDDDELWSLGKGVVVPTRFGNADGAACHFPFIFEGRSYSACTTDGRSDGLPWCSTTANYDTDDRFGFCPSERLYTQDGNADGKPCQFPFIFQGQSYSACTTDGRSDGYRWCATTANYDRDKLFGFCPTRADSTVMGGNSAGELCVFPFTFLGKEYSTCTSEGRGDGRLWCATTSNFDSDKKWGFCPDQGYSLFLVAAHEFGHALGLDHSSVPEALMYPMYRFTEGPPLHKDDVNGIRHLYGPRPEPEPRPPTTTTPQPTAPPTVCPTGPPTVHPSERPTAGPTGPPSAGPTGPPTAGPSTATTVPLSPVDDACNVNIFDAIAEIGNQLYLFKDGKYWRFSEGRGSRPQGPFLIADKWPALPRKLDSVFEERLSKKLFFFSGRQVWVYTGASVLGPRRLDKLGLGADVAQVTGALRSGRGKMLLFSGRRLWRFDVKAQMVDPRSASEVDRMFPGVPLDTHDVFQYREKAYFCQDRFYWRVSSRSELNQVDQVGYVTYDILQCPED

## COc1ccc(C(=O)Nc2ccc(-c3ccc(S(=O)(=O)N[C@@H](CCSC)C(=O)O)cc3)cc2)cc1OC [VI-35]
MMP-8
  IC50: 0.215 µM
MMP-13
  IC50: 0.0687 µM
MMP-2
  IC50: 2.22 µM
MMP-12
  IC50: 0.232 µM
MMP-9
  IC50: > 10 µM

## COc1ccc(C(=O)Nc2ccc(-c3ccc(S(=O)(=O)N[C@H](C)C(=O)O)cc3)cc2)cc1OC [VI-24]
MMP-8
  IC50: 1.52 µM
MMP-13
  IC50: 0.0501 µM
MMP-2
  IC50: 0.839 µM
MMP-12
  IC50: 0.443 µM
MMP-9
  IC50: > 10 µM

## O=C(C#Cc1ccccc1)Nc1ccc(-c2ccc(S(=O)(=O)N[C@H](Cc3ccccc3)C(=O)O)cc2)cc1 [VI-13]
MMP-8
  IC50: 0.641 µM
MMP-13
  IC50: 0.0272 µM
MMP-2
  IC50: 0.167 µM
MMP-12
  IC50: 0.503 µM
MMP-9
  IC50: > 10 µM

## COc1ccc2cc(C#Cc3ccc(-c4ccc(S(=O)(=O)N[C@H](CCSC)C(=O)O)cc4)cc3)ccc2c1 [III-24]
MMP-8
  IC50: 0.19 µM
MMP-13
  IC50: 0.00632 µM
MMP-2
  IC50: 0.239 µM
MMP-12
  IC50: 0.146 µM
MMP-9
  IC50: > 10 µM

## O=C(Nc1ccc(-c2ccc(S(=O)(=O)N[C@H](Cc3ccccc3)C(=O)O)cc2)cc1)c1ccc(F)cc1 [VI-6]
MMP-8
  IC50: > 10 µM
MMP-13
  IC50: 0.0394 µM
MMP-2
  IC50: 0.235 µM
MMP-12
  IC50: > 10 µM
MMP-9
  IC50: > 10 µM

## CC(C)C[C@H](NS(=O)(=O)c1ccc(-c2ccc(C#Cc3ccc4ccccc4c3)cc2)cc1)C(=O)O [III-7]
MMP-8
  IC50: 0.0131 µM
MMP-13
  IC50: 0.00432 µM
MMP-2
  IC50: 0.327 µM
MMP-12
  IC50: 0.0202 µM
MMP-9
  IC50: > 10 µM

## C[C@@H](NS(=O)(=O)c1ccc(-c2ccc(NC(=O)c3ccc(OC(F)(F)F)cc3)cc2)cc1)C(=O)O [VI-21]
MMP-8
  IC50: > 10 µM
MMP-13
  IC50: 0.0368 µM
MMP-2
  IC50: 0.105 µM
MMP-12
  IC50: 0.522 µM
MMP-9
  IC50: > 10 µM

## COc1ccc2cc(C#Cc3ccc(-c4ccc(S(=O)(=O)N[C@@H](Cc5c[nH]c6ccccc56)C(=O)O)cc4)cc3)ccc2c1 [III-31]
MMP-8
  IC50: 4.46 µM
MMP-13
  IC50: 0.0201 µM
MMP-2
  IC50: > 10 µM
MMP-12
  IC50: 0.901 µM
MMP-9
  IC50: > 10 µM

## O=C(O)[C@H](Cc1ccccc1)NS(=O)(=O)c1ccc(-c2ccc(C#Cc3ccc4ccccc4c3)cc2)cc1 [III-12]
MMP-8
  IC50: 0.27 µM
MMP-13
  IC50: 0.0357 µM
MMP-2
  IC50: 8.99 µM
MMP-12
  IC50: 0.888 µM
MMP-9
  IC50: > 10 µM
